Key:
Gal4DBD/AaEcR (DEF) = biological target: T1, Gal4DBD/AaEcR (DEF) (Aedes aegypti, UniProt P49880); test: cell-based; assay type: cell-based; conditions: for fold induction at 33 µM: NIH3T3, read-out: Fold Induction Average, AA_3T3V1 Assay 33 μM; for Fold Induction Average, AA_3T3V1 Assay 33 μM: 3T3 cells, 48 h, average of two wells
T1 construct: The wildtype D, E, and F domains from mosquito Aedes aegypti EcR; expressed in transfected cells; host or cells: 3T3 cells
Procedure, shortened: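 Single-dose ligand testing at 33 μM, applied in serum medium after 4 h transfection. Host was 3T3 cells carrying Gal4DBD/AaEcR (DEF) plus a 5× GAL4 RE-driven firefly luciferase reporter (pFRLuc).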

[1] = biological target: T2, Bombyx mori EcR (VP16-BmEcR, CVBE) (Bombyx mori, UniProt P49881); test: Z3 assay (HEK-293 clone Z3 with CVBE and 6x EcRE LacZ, β-galactosidase reporter); assay type: cell-based; conditions: average of two wells; for fold induction at 33 µM: HEK293, 48 h, read-out: Fold Induction Average, Z3V1 Assay 33 μM; for Fold Induction Average, Z3V1 Assay 33 μM: 48 h
T2 construct: expressed in transfected cells
T2 sequence (P49881 86-606): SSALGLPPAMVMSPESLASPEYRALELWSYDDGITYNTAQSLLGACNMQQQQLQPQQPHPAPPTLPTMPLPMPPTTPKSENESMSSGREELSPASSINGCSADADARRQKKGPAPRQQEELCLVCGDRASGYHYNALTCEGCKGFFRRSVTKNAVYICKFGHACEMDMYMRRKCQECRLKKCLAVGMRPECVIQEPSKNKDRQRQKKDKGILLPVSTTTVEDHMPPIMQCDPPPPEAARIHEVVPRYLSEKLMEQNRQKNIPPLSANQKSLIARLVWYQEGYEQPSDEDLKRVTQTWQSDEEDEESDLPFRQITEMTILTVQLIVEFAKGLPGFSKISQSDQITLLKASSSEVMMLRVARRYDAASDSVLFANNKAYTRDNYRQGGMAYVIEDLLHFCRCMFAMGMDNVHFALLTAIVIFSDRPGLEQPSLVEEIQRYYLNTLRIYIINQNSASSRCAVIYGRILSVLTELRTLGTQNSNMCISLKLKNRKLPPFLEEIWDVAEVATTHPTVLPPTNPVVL

CfEcR + LmUSP = CfEcR + LmUSP in 3T3 cells, reporter assayed 48 h after ligand
Procedure: 1.9—Gal4CfEcR-DEF/VP16LmRXR-EF: This construct was prepared in the same way as switch 1.1 except LmRXR-EF (SEQ ID NO: 18) was used in place of HsRXRβ-LmRXREF chimera.
(§1) To determine if any of the compounds shown in Table 1 and Table 2 can act as inducers of reporter gene activity in a transactivation assay, these compounds were tested in NIH3T3 cells transfected with pFRLUC reporter and gene expression cassettes, 1.1 to 1.8 described in Example 1. […] At 48 hr after adding ligand, the cells were harvested and reporter activity was assayed using Dual Luciferase assay kit (Promega carporation). Total relative light units (RLU) are shown. Standard methods for culture and maintenance of the cells were followed.
(§2) Transfections: DNAs corresponding to the various switch constructs outlined in Example I, specifically switches 1.1 through 1.8, were transfected into mouse NIH3T3 cells (ATCC) as follows. Cells were harvested when they reached 50% confluency and plated in 6-, 12- or 24-well plates at 125,000, 50,000, or 25,000 cells, respectively, in 2.5, 1.0, or 0.5 ml of growth medium containing 10% fetal bovine serum (FBS), respectively. The next day, the cells were rinsed with growth medium and transfected for four hours. […] For 12-well plates, 4 μl of Superfect™ was mixed with 100 μl of growth medium. 1.0 μg of reporter construct and 0.25 μg of each receptor construct of the receptor pair to be analyzed were added to the transfection mix. A second reporter construct was added [pTKRL (Promega), 0.1 μg/transfection mix] that comprises a Renilla luciferase gene operably linked and placed under the control of a thymidine kinase (TK) constitutive promoter and was used for normalization. The contents of the transfection mix were mixed in a vortex mixer and let stand at room temperature for 30 min. At the end of incubation, the transfection mix was added to the cells maintained in 400 μl growth medium. The cells were maintained at 37° C. and 5% CO2 for four hours. At the end of incubation, 500 μl of growth medium containing 20% FBS and either dimethylsulfoxide (DMSO; control) or a DMSO solution of 0.1, 1, and 10 μM ligand was added and the cells were maintained at 37° C. and 5% CO2 for 48 hours. The cells were harvested and reporter activity was assayed. The same procedure was followed for 6 and 24 well plates as well except all the reagents were doubled for 6 well plates and reduced to half for 24-well plates.
(§3) Ligands: All ligands were dissolved in DMSO and the final concentration of DMSO was maintained at 0.1% in both controls and treatments.
(§4) Reporter Assays: Cells were harvested 48 hours after adding ligands. 125, 250, or 500 μl of passive lysis buffer (part of Dual-luciferase™ reporter assay system from Promega Corporation) were added to each well of 24- or 12- or 6-well plates respectively. The plates were placed on a rotary shaker for 15 minutes. Twenty μl of lysate were assayed. Luciferase activity was measured using Dual-luciferase™ reporter assay system from Promega Corporation following the manufacturer's instructions.

DmEcR + LmUSP = biological target: T3, DmEcR + LmUSP (Drosophila melanogaster, UniProt P34021); test: cell-based; conditions: for fold induction at 10 µM: NIH3T3, read-out: Fold Induction (10 μM); for fold induction at 100 µM: NIH3T3, read-out: Fold Induction (100 μM)
T3 sequence (P34021 342-878): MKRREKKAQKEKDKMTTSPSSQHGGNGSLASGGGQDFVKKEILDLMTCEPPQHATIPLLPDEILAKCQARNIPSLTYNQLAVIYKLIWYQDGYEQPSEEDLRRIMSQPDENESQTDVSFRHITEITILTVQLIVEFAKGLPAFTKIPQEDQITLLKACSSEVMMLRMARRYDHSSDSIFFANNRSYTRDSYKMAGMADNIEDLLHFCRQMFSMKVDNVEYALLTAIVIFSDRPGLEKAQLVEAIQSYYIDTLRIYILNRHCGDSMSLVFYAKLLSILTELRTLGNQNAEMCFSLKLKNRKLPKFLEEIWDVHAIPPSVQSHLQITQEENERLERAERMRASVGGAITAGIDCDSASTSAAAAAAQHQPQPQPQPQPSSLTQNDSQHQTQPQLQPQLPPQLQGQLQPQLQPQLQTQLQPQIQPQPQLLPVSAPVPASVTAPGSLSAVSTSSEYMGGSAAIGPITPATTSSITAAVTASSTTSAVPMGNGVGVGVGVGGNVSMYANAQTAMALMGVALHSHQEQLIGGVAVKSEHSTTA
Procedure: as §1, §2, §3, §4

[2] = biological target: T4, GAL4AaEcR-DEF/VP16HsRXRβ-EF (Aedes aegypti, UniProt P49880); test: Transactivation reporter assay, AaEcR based switch (1.4) in NIH3T3 cells; assay type: cell-based; conditions: mammalian cells; FIGS. 2-5
T4 construct: expressed in transfected cells; host or cells: mouse NIH3T3 cells
T4 sequence (P49880 405-776 limits assumed): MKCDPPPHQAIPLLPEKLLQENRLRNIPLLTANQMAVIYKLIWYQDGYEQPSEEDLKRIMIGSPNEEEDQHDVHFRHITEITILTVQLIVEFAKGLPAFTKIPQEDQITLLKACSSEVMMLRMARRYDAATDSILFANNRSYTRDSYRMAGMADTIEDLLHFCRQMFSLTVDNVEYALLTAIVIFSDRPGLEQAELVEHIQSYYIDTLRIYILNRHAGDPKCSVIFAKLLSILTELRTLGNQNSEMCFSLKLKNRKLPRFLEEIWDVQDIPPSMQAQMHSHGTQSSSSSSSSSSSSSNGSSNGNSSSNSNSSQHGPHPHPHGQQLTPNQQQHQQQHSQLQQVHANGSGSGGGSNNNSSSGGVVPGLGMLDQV
T4 sequence (P28702 299-533 partner limits assumed): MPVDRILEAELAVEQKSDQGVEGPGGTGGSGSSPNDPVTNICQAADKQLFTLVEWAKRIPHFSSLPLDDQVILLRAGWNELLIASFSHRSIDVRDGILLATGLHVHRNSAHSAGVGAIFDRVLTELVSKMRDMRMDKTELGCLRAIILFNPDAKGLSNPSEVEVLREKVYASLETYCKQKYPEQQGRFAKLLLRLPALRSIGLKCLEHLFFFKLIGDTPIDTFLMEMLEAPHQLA
Procedure: Total relative light units (RLU) are shown.
Twenty μl of lysate were assayed.

[3] = test system: GAL4 DBD-CfEcR(DEF)/VP16AD-MmRXRE; conditions: CHO 13B3 clone, 48 h, average of two wells
Text: GAL4 DBD-CfEcR(DEF)/VP16AD-MmRXRE: The wild-type D, E, and F domains from spruce budworm Choristoneura fumiferana EcR (“CfEcR-DEF”; SEQ ID NO: 1) were fused to a GAL4 DNA binding domain (“Gal4DBD1-147”; nucleotides 31 to 471 of SEQ ID NO: 2) and placed under the control of the SV40e promoter of pM vector (PT3119-5, Clontech, Palo Alto, Calif.). The D and E domains from Mus Musculus RXR (“MmRXR-DE”; SEQ ID NO: 22) were fused to the transactivation domain from VP16 (“VP16AD”; SEQ ID NO: 5) and placed under the control of the SV40e promoter of the pVP16 vector (PT3127-5, Clontech, Palo Alto, Calif.).
CHO cells were transiently transfected with transcription cassettes for GAL4 DBD-CfEcR(DEF) and for VP16AD-MmRXRE controlled by SV40e promoters. Stably transfected cells were selected using Hygromycin. Individually isolated CHO cell clones were transiently transfected with a GAL4 RE-luciferase reporter (pFR-Luc, Stratagene, La Jolla, Calif.). The 13B3 clone was selected using Zeocin.
Cells were trypsinized and diluted to a concentration of 2.5×10^4 cells mL. 100 μL of cell suspension was placed in each well of a 96 well plate and incubated at 37° C. under 5% CO2 for 24 h. Ligand stock solutions were prepared in DMSO and diluted 300 fold for all treatments.
Luciferase reporter gene expression was measured 48 h after cell treatment using Bright-Glo™ Luciferase Assay System from Promega (E2650). Luminescence was detected at room temperature using a Dynex MLX microtiter plate luminometer.
Each assay was conducted in two separate wells, and the two values were averaged. Fold inductions were calculated by dividing relative light units (“RLU”) in ligand treated cells with RLU in DMSO treated cells.

| SMILES | fold induction at 33 µM (Gal4DBD/AaEcR (DEF)) | fold induction at 33 µM [1] | Fold Induction (10 μM) (CfEcR + LmUSP) | fold induction at 10 µM (DmEcR + LmUSP) | fold induction at 100 µM (DmEcR + LmUSP) | Activity on AaEcR based switches [2] | Fold Induction Average, 13B3V1 Assay 33 μM [3] | Fold Induction Average, AA_3T3V1 Assay 33 μM (Gal4DBD/AaEcR (DEF)) | Fold Induction Average, Z3V1 Assay 33 μM [1] |
| --- | --- | --- | --- | --- | --- | --- | --- | --- | --- |
| C[C@H]1C[C@H](Nc2ccc(F)cc2)c2cc(F)ccc2N1C(=O)c1ccc(F)c(Cl)c1 (relative stereo) [Compound I-6, trans-1-(3-chloro-4-fluorobenzoyl)-6-fluoro-2-methyl-4-(4-fluoroanilino)-1,2,3,4-tetrahydroquinoline] | 86 | 1 | 2 fold | 2 | 4 |  |  |  |  |
| C[C@@H]1C[C@H](Nc2ccc(F)cc2)c2cc(F)ccc2N1C(=O)c1ccc(F)c(Cl)c1 (relative stereo) [Compound I-7, cis-1-(3-chloro-4-fluorobenzoyl)-6-fluoro-2-methyl-4-(4-fluoroanilino)-1,2,3,4-tetrahydroquinoline] | 357 | 32 | 94 fold | 14 | 8 |  |  |  |  |
| Cc1cc(C(=O)N2c3ccc(F)cc3[C@@H](Nc3ccc(F)cc3)C[C@@H]2C)ccc1F (relative stereo) [Compound I-13] |  |  |  |  |  | very active | 4 fold | 189 fold | 105 fold |
| Cc1ccc(C(=O)N2c3ccc(F)cc3[C@H](Nc3ccc(F)cc3)C[C@@H]2C)cc1F (relative stereo) [Compound I-14] |  |  |  |  |  | very active | 2 fold | 518 fold | 7 fold |

Reference: patent US20050228016A1, “TETRAHYDROQUINOLINES FOR MODULATING THE EXPRESSION OF EXOGENOUS GENES VIA AN ECDYSONE RECEPTOR COMPLEX” (priority 2002, published 2005)
